Measured values: the supplement of paper PMC10307832

What was measured:
Assay in all cases: relative viability (nuclei count vs DMSO), 5 days (fraction); higher = more cells survive
[1] = test system: A-427
How it was run: (§1)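 Relative viability equals treated-well nuclei counts divided by vehicle-well nuclei counts. Counts came from 4× images of lung cancer cell lines grown in 1536-well plates for 5 days after pin-tool dosing on the day after seeding. Dosing used one drug alone or a fixed anchor-drug dose plus five library-drug doses (not always all listed) in √10 steps, and values are medians of duplicate plates.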

[2] = test system: CAL-12T
How it was run: as §1

[3] = test system: COR-L 105
How it was run: as §1

[4] = test system: EMC-BAC-2
How it was run: as §1

[5] = test system: HARA
How it was run: as §1

[6] = test system: HCC-366
How it was run: as §1

[7] = test system: HCC-827
How it was run: as §1

[8] = test system: HOP-62
How it was run: as §1

[9] = test system: LCLC-103H
How it was run: as §1

[10] = test system: NCI-H1355
How it was run: as §1

[11] = test system: NCI-H1395
How it was run: as §1

[12] = test system: NCI-H1437
How it was run: as §1

[13] = test system: NCI-H1755
How it was run: as §1

[14] = test system: NCI-H1792
How it was run: as §1

[15] = test system: NCI-H1915
How it was run: as §1

[16] = test system: NCI-H1975
How it was run: as §1

[17] = test system: NCI-H2009
How it was run: as §1

[18] = test system: NCI-H2228
How it was run: as §1

[19] = test system: NCI-H23
How it was run: as §1

[20] = test system: NCI-H460
How it was run: as §1

[21] = test system: NCI-H727
How it was run: as §1

[22] = test system: SK-LU-1
How it was run: as §1

[23] = test system: SW 1573
How it was run: as §1

## CC1(C)CCC(c2ccc(Cl)cc2)=C(CN2CCN(c3ccc(C(=O)NS(=O)(=O)c4ccc(N[C@H](CCN5CCOCC5)CSc5ccccc5)c(S(=O)(=O)C(F)(F)F)c4)cc3)CC2)C1 [Navitoclax] + COc1cccc2cc(-c3nc([C@H]4CC[C@H](C(=O)O)CC4)n4ncnc(N)c34)[nH]c12 [OSI-027] (partner 0.5 µM)
[1]; first compound 0.005 µM
  relative viability: 0.485
[1]; first compound 0.01581 µM
  relative viability: 0.525
[1]; first compound 0.05 µM
  relative viability: 0.444
[1]; first compound 0.1581 µM
  relative viability: 0.477
[1]; first compound 0.5 µM
  relative viability: 0.392
[2]; first compound 0.005 µM
  relative viability: 0.649
[2]; first compound 0.01581 µM
  relative viability: 0.676
[2]; first compound 0.05 µM
  relative viability: 0.557
[2]; first compound 0.1581 µM
  relative viability: 0.677
[2]; first compound 0.5 µM
  relative viability: 0.629
[3]; first compound 0.005 µM
  relative viability: 0.663
[3]; first compound 0.01581 µM
  relative viability: 1.01
[3]; first compound 0.05 µM
  relative viability: 0.573
[3]; first compound 0.1581 µM
  relative viability: 0.775
[3]; first compound 0.5 µM
  relative viability: 0.582
[4]; first compound 0.005 µM
  relative viability: 0.392
[4]; first compound 0.01581 µM
  relative viability: 0.362
[4]; first compound 0.05 µM
  relative viability: 0.382
[4]; first compound 0.1581 µM
  relative viability: 0.351
[4]; first compound 0.5 µM
  relative viability: 0.372
[5]; first compound 0.005 µM
  relative viability: 0.538
[5]; first compound 0.01581 µM
  relative viability: 0.684
[5]; first compound 0.1581 µM
  relative viability: 0.66
[5]; first compound 0.5 µM
  relative viability: 0.459
[6]; first compound 0.005 µM
  relative viability: 0.912
[6]; first compound 0.01581 µM
  relative viability: 0.941
[6]; first compound 0.1581 µM
  relative viability: 0.972
[6]; first compound 0.5 µM
  relative viability: 0.978
[7]; first compound 0.005 µM
  relative viability: 0.767
[7]; first compound 0.01581 µM
  relative viability: 0.951
[7]; first compound 0.05 µM
  relative viability: 0.74
[7]; first compound 0.1581 µM
  relative viability: 0.761
[7]; first compound 0.5 µM
  relative viability: 0.812
[8]; first compound 0.005 µM
  relative viability: 0.734
[8]; first compound 0.01581 µM
  relative viability: 0.971
[8]; first compound 0.05 µM
  relative viability: 0.863
[8]; first compound 0.1581 µM
  relative viability: 0.648
[8]; first compound 0.5 µM
  relative viability: 0.894
[9]; first compound 0.005 µM
  relative viability: 0.462
[9]; first compound 0.01581 µM
  relative viability: 0.449
[9]; first compound 0.05 µM
  relative viability: 0.399
[9]; first compound 0.1581 µM
  relative viability: 0.479
[9]; first compound 0.5 µM
  relative viability: 0.533
[10]; first compound 0.005 µM
  relative viability: 0.447
[10]; first compound 0.01581 µM
  relative viability: 0.469
[10]; first compound 0.05 µM
  relative viability: 0.425
[10]; first compound 0.1581 µM
  relative viability: 0.397
[10]; first compound 0.5 µM
  relative viability: 0.431
[11]; first compound 0.005 µM
  relative viability: 0.591
[11]; first compound 0.01581 µM
  relative viability: 0.77
[11]; first compound 0.05 µM
  relative viability: 0.601
[11]; first compound 0.1581 µM
  relative viability: 0.569
[11]; first compound 0.5 µM
  relative viability: 0.754
[12]; first compound 0.005 µM
  relative viability: 0.845
[12]; first compound 0.01581 µM
  relative viability: 0.974
[12]; first compound 0.05 µM
  relative viability: 0.932
[12]; first compound 0.1581 µM
  relative viability: 0.856
[12]; first compound 0.5 µM
  relative viability: 0.83
[13]; first compound 0.005 µM
  relative viability: 0.683
[13]; first compound 0.01581 µM
  relative viability: 0.834
[13]; first compound 0.05 µM
  relative viability: 0.612
[13]; first compound 0.1581 µM
  relative viability: 0.649
[13]; first compound 0.5 µM
  relative viability: 0.671
[14]; first compound 0.005 µM
  relative viability: 0.747
[14]; first compound 0.01581 µM
  relative viability: 0.799
[14]; first compound 0.05 µM
  relative viability: 0.667
[14]; first compound 0.1581 µM
  relative viability: 0.726
[14]; first compound 0.5 µM
  relative viability: 0.705
[15]; first compound 0.005 µM
  relative viability: 0.595
[15]; first compound 0.01581 µM
  relative viability: 0.636
[15]; first compound 0.05 µM
  relative viability: 0.627
[15]; first compound 0.1581 µM
  relative viability: 0.521
[15]; first compound 0.5 µM
  relative viability: 0.629
[16]; first compound 0.005 µM
  relative viability: 0.764
[16]; first compound 0.01581 µM
  relative viability: 0.83
[16]; first compound 0.05 µM
  relative viability: 0.823
[16]; first compound 0.1581 µM
  relative viability: 0.688
[16]; first compound 0.5 µM
  relative viability: 0.677
[17]; first compound 0.005 µM
  relative viability: 0.598
[17]; first compound 0.01581 µM
  relative viability: 0.792
[17]; first compound 0.05 µM
  relative viability: 0.576
[17]; first compound 0.1581 µM
  relative viability: 0.643
[17]; first compound 0.5 µM
  relative viability: 0.735
[18]; first compound 0.005 µM
  relative viability: 0.586
[18]; first compound 0.01581 µM
  relative viability: 0.726
[18]; first compound 0.1581 µM
  relative viability: 0.53
[18]; first compound 0.5 µM
  relative viability: 0.5
[19]; first compound 0.005 µM
  relative viability: 0.704
[19]; first compound 0.01581 µM
  relative viability: 0.691
[19]; first compound 0.05 µM
  relative viability: 0.529
[19]; first compound 0.1581 µM
  relative viability: 0.582
[19]; first compound 0.5 µM
  relative viability: 0.63
[20]; first compound 0.005 µM
  relative viability: 0.652
[20]; first compound 0.01581 µM
  relative viability: 0.702
[20]; first compound 0.05 µM
  relative viability: 0.821
[20]; first compound 0.1581 µM
  relative viability: 0.652
[20]; first compound 0.5 µM
  relative viability: 0.671
[21]; first compound 0.005 µM
  relative viability: 0.675
[21]; first compound 0.01581 µM
  relative viability: 0.692
[21]; first compound 0.1581 µM
  relative viability: 0.663
[21]; first compound 0.5 µM
  relative viability: 0.728
[22]; first compound 0.005 µM
  relative viability: 0.374
[22]; first compound 0.01581 µM
  relative viability: 0.429
[22]; first compound 0.05 µM
  relative viability: 0.347
[22]; first compound 0.1581 µM
  relative viability: 0.374
[22]; first compound 0.5 µM
  relative viability: 0.319
[23]; first compound 0.005 µM
  relative viability: 0.762
[23]; first compound 0.01581 µM
  relative viability: 0.782
[23]; first compound 0.05 µM
  relative viability: 0.638
[23]; first compound 0.1581 µM
  relative viability: 0.562
[23]; first compound 0.5 µM
  relative viability: 0.576
